The IC50 is the concentration at which inhibition is half-maximal.

Chain of IDH1 R132H (O75874 whole entry R132H): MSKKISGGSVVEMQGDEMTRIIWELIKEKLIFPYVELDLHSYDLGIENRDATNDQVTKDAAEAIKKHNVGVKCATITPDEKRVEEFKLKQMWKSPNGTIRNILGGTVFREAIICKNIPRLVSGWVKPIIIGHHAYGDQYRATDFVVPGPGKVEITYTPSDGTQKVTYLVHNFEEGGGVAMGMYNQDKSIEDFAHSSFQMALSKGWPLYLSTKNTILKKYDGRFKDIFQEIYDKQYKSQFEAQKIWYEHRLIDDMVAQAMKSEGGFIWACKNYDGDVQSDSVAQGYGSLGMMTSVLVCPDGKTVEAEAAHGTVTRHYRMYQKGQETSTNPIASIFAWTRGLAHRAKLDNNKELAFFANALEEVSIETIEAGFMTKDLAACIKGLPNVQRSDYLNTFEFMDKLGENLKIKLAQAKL

The target in the first assay is IDH1 R132H (Homo sapiens, UniProt O75874, R132H). The experiment in a line: Assay for IDH1 R132H inhibitors (NADPH/aKG, resazurin detection). As to conditions: Table 3; enzyme assay, 50 minutes at room temperature; read-out: IC50 (IDH1 R132H Inhibition). The format is biochemical. An outline of the steps:
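Compound added to substrate mix (8 uM NADPH, 2 mM aKG), then enzyme mix (0.2 μg/ml IDH1 R132H); 50 min RT in 20 mM Tris pH 7.5, 150 mM NaCl, 10 mM MgCl2, 0.03% BSA. Resazurin detection mix (30 μM) 5 min RT; resorufin fluorescence Ex544/Em590.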
Background: Resazurin is reduced to fluorescent resorufin, in cell work by metabolically active cells.
Regarding `COCCC(=O)N1CCN(c2nc(C(C)C)c(-c3cccc(OC(F)(F)F)c3)cc2C#N)C[C@H]1C` [Compound 230, (R)-6-isopropyl-2-(4-(3-methoxypropanoyl)-3-methylpiperazin-1-yl)-5-(3-(trifluoromethoxy)phenyl)nicotinonitrile], the IC50 lay within 1000 to 5000 nM.

On to `COCCC(=O)N1CCN(c2nc(C(C)C)c(-c3ccc(C(C)C)cc3)cc2C#N)C[C@H]1C` [Compound 208, (R)-6-isopropyl-5-(4-isopropylphenyl)-2-(4-(3-methoxypropanoyl)-3-methylpiperazin-1-yl)nicotinonitrile], for which the IC50 fell in the range of 1000 to 5000 nM.

`CC(C)c1cc(-c2ccccc2)c(C#N)c(N2CCN(C(=O)c3ccoc3)[C@H](C)C2)n1` [Compound 130, (R)-2-(4-(furan-3-carbonyl)-3-methylpiperazin-1-yl)-6-isopropyl-4-phenylnicotinonitrile]: the IC50 lay in the range of 1000 to 5000 nM.

With `CC(C)c1nc(N2CCN(C(=O)Cc3ccccc3)CC2)c(C#N)cc1-c1ccccc1` [Compound 126, 6-isopropyl-5-phenyl-2-(4-(2-phenylacetyl)piperazin-1-yl)nicotinonitrile], the IC50 lay in the range of 1000 to 5000 nM.

For `CC(C)c1cc(-c2ccccc2)c(C#N)c(N2CCN(C(=O)c3ccco3)C(C)C2)n1` (centres unmarked) [Compound 107, 2-(4-(furan-2-carbonyl)-3-methylpiperazin-1-yl)-6-isopropyl-4-phenylnicotinonitrile], the IC50 lay in the range of 1000 to 5000 nM.

Regarding `Cc1ccc(-c2cc(C#N)c(N3CCN(C(=O)c4ccoc4)[C@H](C)C3)nc2C(C)C)cc1` [Compound 179, (R)-2-(4-(furan-3-carbonyl)-3-methylpiperazin-1-yl)-6-isopropyl-5-p-tolylnicotinonitrile], the IC50 was in the range of 1000 to 5000 nM.

On to `COCCC(=O)N1CCN(c2nc(C3CC3)c(-c3ccccc3F)cc2C#N)C[C@H]1C` [Compound 249, (R)-6-cyclopropyl-5-(2-fluorophenyl)-2-(4-(3-methoxypropanoyl)-3-methylpiperazin-1-yl)nicotinonitrile], for which the IC50 was at most 1000 nM.

On to `COCCC(=O)N1CCN(c2nc(C3CC3)c(-c3cccc(C)c3)c(C)c2C#N)C[C@H]1C` [Compound 243, (R)-6-cyclopropyl-2-(4-(3-methoxypropanoyl)-3-methylpiperazin-1-yl)-4-methyl-5-m-tolylnicotinonitrile], for which the IC50 was at most 1000 nM.

With `Cc1cccc(-c2cc(C#N)c(N3CCN(C(=O)c4ccoc4)[C@H](C)C3)nc2C(C)C)c1` [Compound 191], the IC50 was at most 1000 nM.

For the compound `CC(C)c1cc(-c2ccccc2)nc(N2CCN(C(=O)c3ccoc3)C(C)C2)c1C#N` (centres unmarked) [Compound 111], the IC50 fell in the range of 5000 to 15000 nM.

For the compound `CC(C)c1nc(N2CCN(C(=O)c3ccoc3)C(C)C2)c(C#N)cc1-c1ccccc1` (centres unmarked) [Compound 120, 2-(4-(furan-3-carbonyl)-3-methylpiperazin-1-yl)-6-isopropyl-5-phenylnicotinonitrile], the IC50 lay within 1000 to 5000 nM.

As to `CC(C)c1cc(-c2ccccc2)c(C#N)c(N2CCN(C(=O)Cc3ccccc3)[C@@H](C)C2)n1` [Compound 133, (S)-6-isopropyl-2-(3-methyl-4-(2-phenylacetyl)piperazin-1-yl)-4-phenylnicotinonitrile], the IC50 lay within 1000 to 5000 nM.

In the case of `CC(C)c1nc(N2CCN(C(=O)c3ccoc3)CC2c2ccccc2)c(C#N)cc1-c1ccccc1` (centres unmarked) [Compound 159, 2-(4-(furan-3-carbonyl)-2-phenylpiperazin-1-yl)-6-isopropyl-5-phenylnicotinonitrile], the IC50 was in the range of 5000 to 15000 nM.

As for `N#Cc1cc(-c2ccccc2)c(-c2ccccc2)nc1N1CCN(C(=O)c2ccoc2)CC1` [Compound 122, 2-(4-(furan-3-carbonyl)piperazin-1-yl)-5,6-diphenylnicotinonitrile], the IC50 fell in the range of 5000 to 15000 nM.

In the case of `COCCC(=O)N1CCN(c2nc(C3CC3)c(-c3ccc4[nH]ccc4c3)cc2C#N)C[C@H]1C` [Compound 253, (R)-6-cyclopropyl-5-(1H-indol-5-yl)-2-(4-(3-methoxypropanoyl)-3-methylpiperazin-1-yl)nicotinonitrile], the IC50 is at most 1000 nM.

With `COCCC(=O)N1CCN(c2nc(C3CC3)c(-c3ccsc3)cc2C#N)C[C@H]1C` [Compound 246, (R)-6-cyclopropyl-2-(4-(3-methoxypropanoyl)-3-methylpiperazin-1-yl)-5-(thiophen-3-yl)nicotinonitrile], the IC50 is at most 1000 nM.

The assay is the same for the next values; noted with them: enzyme assay of Example 12; read-out: IDH1R132H IC50.
As to `N#Cc1cc(-c2ccc(C(F)(F)F)nc2)c(C2CC2)nc1N1CCN(C(=O)C2CC2)[C@H](C2CC2)C1` [Compound 567, (R)-6-(4-(cyclopropanecarbonyl)-3-cyclopropylpiperazin-1-yl)-2-cyclopropyl-6′-(trifluoromethyl)-[3,3′-bipyridine]-5-carbonitrile], the IC50 was in the range of 500 to 1000 nM.

In the case of `Cc1nccc2c(-c3cc(C#N)c(N4CCN(C(=O)C5CC5)[C@H](C5CC5)C4)nc3C3CC3)cccc12` [Compound 497, (R)-2-(4-(cyclopropanecarbonyl)-3-cyclopropylpiperazin-1-yl)-6-cyclopropyl-5-(1-methylisoquinolin-5-yl)nicotinonitrile], the IC50 was below 500 nM.

For `COCCC(=O)N1CCN(c2nc(C3CC3)c(N3CCOCC3)cc2C#N)C[C@H]1C` [Compound 375, (R)-6-cyclopropyl-2-(4-(3-methoxypropanoyl)-3-methylpiperazin-1-yl)-5-morpholinonicotinonitrile], the IC50 was in the range of 500 to 1000 nM.

As for `N#Cc1cc(-c2cccc3nc(N)ncc23)c(C2CC2)nc1N1CCN(C(=O)C2CC2)[C@H](C2CC2)C1` [Compound 538, (R)-5-(2-aminoquinazolin-5-yl)-2-(4-(cyclopropanecarbonyl)-3-cyclopropylpiperazin-1-yl)-6-cyclopropylnicotinonitrile], the IC50 was below 500 nM.

Consider `C=Cc1ccnc(Nc2cc(C#N)c(N3CCN(C(=O)CN4CCCC4=O)[C@H](C4CC4)C3)nc2C2CC2)c1` [Compound 816, (R)-6-cyclopropyl-2-(3-cyclopropyl-4-(2-(2-oxopyrrolidin-1-yl)acetyl)piperazin-1-yl)-5-((4-vinylpyridin-2-yl)amino)nicotinonitrile], for which the IC50 was 500 to 1000 nM.

Regarding `COCCC(=O)N1CCN(c2nc(C3CC3)c(-c3cccc(COC)c3)c(C)c2C#N)C[C@H]1C` [Compound 322, (R)-6-cyclopropyl-5-(3-methoxymethyl-phenyl)-2-[4-(3-methoxy-propionyl)-3-methyl-piperazin-1-yl]-4-methyl-nicotinonitrile], the IC50 is below 500 nM.

`COCCC(=O)N1CCN(c2nc(C3CC3)c(Nc3ccnc(C(N)=O)c3)cc2C#N)C[C@H]1C` [Compound 729, (R)-4-(5-cyano-2-cyclopropyl-6-(4-(3-methoxypropanoyl)-3-methylpiperazin-1-yl)pyridin-3-ylamino)picolinamide]: the IC50 is below 500 nM.

As to `CCO[C@H]1C[C@H]1C(=O)N1CCN(c2nc(C3CC3)c(-c3ccc(F)cc3)cc2C#N)C[C@H]1C1CC1` [Compound 564, 6-cyclopropyl-2-((R)-3-cyclopropyl-4-((1R,2S)-2-ethoxycyclopropanecarbonyl)piperazin-1-yl)-5-(4-fluorophenyl)nicotinonitrile], the IC50 was below 500 nM.

Take `COCCC(=O)N1CCN(c2nc(C3CC3)c(-c3cccc(C(=O)N4CCCC4)c3)c(C)c2C#N)C[C@H]1C` [Compound 332, (R)-6-cyclopropyl-2-[4-(3-methoxy-propionyl)-3-methyl-piperazin-1-yl]-4-methyl-5-[3-(pyrrolidine-1-carbonyl)-phenyl]-nicotinonitrile]: the IC50 was 500 to 1000 nM.

Regarding `COC(=O)CCC(=O)N1CCN(c2nc(C3CC3)c(-c3ccnc(Cl)c3)cc2C#N)C[C@H]1C1CC1` [Compound 739, (R)-methyl 4-(4-(2′-chloro-5-cyano-2-cyclopropyl-3,4′-bipyridin-6-yl)-2-cyclopropylpiperazin-1-yl)-4-oxobutanoate], the IC50 is below 500 nM.

As for `N#Cc1cc(-c2cc(CCN)nc(N)n2)c(C2CC2)nc1N1CCN(C(=O)C2CC2)[C@H](C2CC2)C1` [Compound 701, (R)-5-(2-amino-6-(2-aminoethyl)pyrimidin-4-yl)-2-(4-(cyclopropanecarbonyl)-3-cyclopropylpiperazin-1-yl)-6-cyclopropylnicotinonitrile], the IC50 is below 500 nM.

With `CCCOc1ccc(-c2c(C3CC3)nc(N3CCN(C(=O)CCOC)[C@H](C)C3)c(C#N)c2C)cc1` [Compound 337, (R)-6-cyclopropyl-2-[4-(3-methoxy-propionyl)-3-methyl-piperazin-1-yl]-4-methyl-5-(4-propoxy-phenyl)-nicotinonitrile], the IC50 lay in the range of 500 to 1000 nM.

Regarding `COCCC(=O)N1CCN(c2nc(C3CC3)c(OC(C)c3cccc(Cl)c3)cc2C#N)C[C@H]1C` (stereo partly drawn) [Compound 310, 5-(1-(3-chlorophenyl)ethoxy)-6-cyclopropyl-2-((R)-4-(3-methoxypropanoyl)-3-methylpiperazin-1-yl)nicotinonitrile], the half-inhibitory concentration (IC50) is 500 to 1000 nM.

With `N#Cc1cc(-c2cccc3cnccc23)c(C2CC2)nc1N1CCN(C(=O)C2CC2)C(C(F)F)C1` (centres unmarked) [Compound 422, 2-(4-(cyclopropanecarbonyl)-3-(difluoromethyl)piperazin-1-yl)-6-cyclopropyl-5-(isoquinolin-5-yl)nicotinonitrile], the IC50 is 500 to 1000 nM.

In the case of `COCCC(=O)N1CCN(c2nc(C3CC3)c(-c3cc(Cl)nc(C#N)c3)cc2C#N)C[C@H]1C` [Compound 673, (R)-6′-chloro-2-cyclopropyl-6-(4-(3-methoxypropanoyl)-3-methylpiperazin-1-yl)-[3,4′-bipyridine]-2′,5-dicarbonitrile], the IC50 was 500 to 1000 nM.

`C=Cc1cc(-c2c(C3CC3)nc(N3CCN(C(=O)CCC4CC4)[C@H](C4CC4)C3)c(C#N)c2C)ccn1` [Compound 825, (R)-2-cyclopropyl-6-(3-cyclopropyl-4-(3-cyclopropylpropanoyl)piperazin-1-yl)-4-methyl-2′-vinyl-3,4′-bipyridine-5-carbonitrile]: the IC50 was below 500 nM.
